Biological target: T1, ATGL and G0S2 (Homo sapiens, UniProt Q96AD5)
T1 construct: expressed in transfected cells; host or cells: HEK293 cells; NG-497 added to the lysates
Assay: Co-immunoprecipitation of ATGL and G0S2
Format: binding
Details: NG-497 40 µM, HEK293 lysates, FLAG-ATGL and His-G0S2
Procedure: Fig. S2: Effect of NG-497 on the protein-protein interaction of ATGL and G0S2 investigated by co-immunoprecipitation.
HEK293 cells were co-transfected with FLAG-tagged ATGL and His-tagged G0S2 (both human). As controls, FLAG-tagged ATGL was co-expressed with His-LacZ, and His-tagged G0S2 with empty FLAG-vector (e-FLAG). (a) Protein expression of the indicated plasmid combinations was confirmed using anti-Xpress and anti-Flag antibodies. (b) Cell lysates were incubated with anti-FLAG M2 affinity beads in the presence or absence of NG-497 (40 µM). After extensive washing, bound proteins were eluted by boiling in SDS-containing sample buffer and subjected to Western blotting analysis. His-G0S2 was exclusively […]
Data are representative for two
(1 picture or pasted object on this page, not shown here)
Co-immunoprecipitation. HEK293 cells were co-transfected with the indicated plasmid combinations using Metafectene (#T020-5.0; Biontex, Germany) according to the manufacturer’s instructions. […]
Analysis of toxicity in HepG2 hepatocytes. […] Release of LDH into the medium was analyzed using the Cytotoxicity Detection Kit PLUS (LDH) (MilliporeSigma) according to the manufacturer’s instructions. Cytotoxicity was calculated as relative LDH release as compared to fully lysed cells. […]

T1 sequence (Q96AD5 whole entry): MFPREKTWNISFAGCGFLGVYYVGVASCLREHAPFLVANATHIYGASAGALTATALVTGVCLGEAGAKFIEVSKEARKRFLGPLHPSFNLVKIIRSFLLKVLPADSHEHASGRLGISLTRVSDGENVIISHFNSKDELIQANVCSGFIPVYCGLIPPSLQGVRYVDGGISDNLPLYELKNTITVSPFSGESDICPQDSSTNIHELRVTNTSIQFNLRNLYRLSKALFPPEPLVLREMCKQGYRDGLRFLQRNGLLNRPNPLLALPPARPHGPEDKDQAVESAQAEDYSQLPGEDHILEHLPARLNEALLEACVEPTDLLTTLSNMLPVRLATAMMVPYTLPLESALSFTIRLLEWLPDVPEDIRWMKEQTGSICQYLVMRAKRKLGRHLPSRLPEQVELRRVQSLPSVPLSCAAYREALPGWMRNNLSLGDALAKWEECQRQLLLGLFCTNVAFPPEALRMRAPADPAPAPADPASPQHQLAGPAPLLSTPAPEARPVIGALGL
T1 sequence (P27469 whole entry partner): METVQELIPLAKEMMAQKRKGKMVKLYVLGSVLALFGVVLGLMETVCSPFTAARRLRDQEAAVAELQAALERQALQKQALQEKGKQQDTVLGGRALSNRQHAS

Compound: CCOc1ccc(-c2cc(OC)cc(C(=O)OC(C)C)n2)cc1 [NG-497]
- G0S2 binding to ATGL (co-immunoprecipitation): increased G0S2 binding

From paper PMC9011347, “Small-Molecule Inhibitors Targeting Lipolysis in Human Adipocytes” (Journal of the American Chemical Society, 2022)
